According to patent US6632455B2, “Molecular dispersion composition with enhanced bioavailability” (Schering Corporation, priority 1997, dated 2003):

What was measured:
abnormal growth of cells = conditions: cited from earlier work
[1] = molecular target: farnesyl protein transferase (Homo sapiens, UniProt P49356); conditions: cited from earlier work
[2] = Bioavailability assay: single oral dose, plasma analysed by HPLC-UV, AUC compared with amorphous suspension control; format: in vivo, male cynomolgus monkeys; conditions: for bioavailability (in words): observed while developing a solid dosage form with conventional excipients
Procedure: The formulation to be tested was administered orally to male cynomolgus monkeys in a single dose (PO, single). The number of monkeys for each test is indicated by the letter “N” followed by an equal sign and a number. Thus, “(N=6)” means the formulation was administered to six monkeys. The total amount of the compound of Formula I administered was 100 or 200 mg given as one capsule or tablet containing 100 or 200 mg each. The administered dose (tablet, capsule or control suspension) was slowly washed down with 10 mL of water. Blood samples were taken at 15, 30 minutes, 1 hour, 2 hours, 4 hours, 6 hours, 8 hours, 12 hours, 24 hours, and 48 hours in heparinized syringes. Plasma for analysis was obtained by centrifugation at 4° C. Plasma samples (one per time point) were split and stored at −20° C. until assayed as described below.
The monkeys to be tested were fed two biscuits in the morning on the day of drug administration.
Monkeys that were fasted were not given any food overnight before drug administration and were fed normally after the 4-hour time point after drug administration.
Samples of monkey plasma were collected at selected time intervals. The plasma was analyzed by a high pressure liquid chromatograph (HPLC) procedure with ultraviolet detection. AUC (area under the plasma concentration-time curve, […]) values were calculated using standard procedures to determine the relative bioavailability of the compound in the tested formulations. The larger the AUC value, the greater the bioavailability.
A suspension of the compound of Formula I was used as a control. The control was made by suspending sufficient compound of Formula I in methyl cellulose solution to provide a dose of 30 mg/kg of body weight of monkey. The 0.4% methyl cellulose solution was made by adding 4 grams of methyl cellulose to one liter of distilled water and heating at about 80° C. with stirring for about 1½ hours.
The results of the bioavailability assay are given in terms of percent-relative bioavailability (AUC ratio) compared to amorphous suspension of Compound I in 0.4 methyl cellulose solution.

[3] = fed monkeys, suspension of crystalline form vs suspension of amorphous form
[4] = suspension of crystalline form vs suspension of amorphous form, feeding state not printed in the sentence (fasted implied by b145)

For `NC(=O)N1CCC(CC(=O)N2CCC(C3c4ncc(Br)cc4CCc4cc(Cl)cc(Br)c43)CC2)CC1` (single isomer, unassigned; (+)) [Compound I, (+)-4-[4-(8-chloro-3,10-dibromo-6,11-dihydro-5H-benzo [5,6cyclohepta[1,2-b]pyridin-11-yl)-1-piperidinyl]-2-oxoethyl]-1-piperidinecarboxamide], the “activity for inhibiting the abnormal growth of cells (in words)” value (abnormal growth of cells) is listed as “potent activity”, the “activity for inhibiting farnesyl protein transferase (in words)” value [1] is listed as “potent activity” and the “relative bioavailability, % of the AUC of the amorphous suspension” value [2, 3] is listed as 3.6%. For the same compound, the “relative bioavailability, % of the C max of the amorphous suspension” value [2, 3] was 5.2%, the “bioavailability (in words)” value ([2]; listed as compound of Formula I) was “extremely poor” and the “bioavailability (in words)” value ([2]; listed as crystalline Compound I) was “very poor”. The “relative bioavailability, % of the AUC of the amorphous suspension” value [2, 4] was 1.3% and the “relative bioavailability, % of the Cmax of the amorphous suspension” value [2, 4] was 2.7%.
